Source: US10703796B2, “CD44v6-derived cyclic peptides for treating cancers and angiogenesis related diseases” (AMCURE GMBH, priority 2014, dated 2020)
Bridges are numbered along the chain shown (N, C = ends). Where no end group is shown, it is not given here. [ ]: non-standard residue; d: D form.

Tests used:
Format in all cases: cell-based, human
[1] = tested on: c-Met; test: HGF-induced activation of c-Met in Panc1 cells (blot of activated Met vs total Met); conditions: peptide 30 nM for 5 min at 37° C. prior to HGF 10 ng/ml for 5 min
Method: (§1) Human adenocarcinoma cells, Panc1, were seeded at 2×10^5 cells per well in a 6-well plate. The day after seeding the cells, they were starved for 24 h. The following day, the cells were treated as indicated with either alga1 or D3alga1, a control peptide (N-A-A-A-E (SEQ ID NO: 37)) at a concentration of 30 nM for 5 min at 37° C. prior to induction with HGF (10 ng/ml) at 37° C. for 5 min. Results are given in FIG. 3 (A: alga1; B: D3alga1).
(§2) Human adenocarcinoma cells, Panc1, were seeded at 2×10^5 cells per well in a 6-well plate. The day after seeding, the cells were starved for 24 h. The following day, the cells were treated as indicated with either D1alga1, D2alga1 or D3alga1, a human CD44v6 14mer (h14mer) or control peptide (N-A-A-A-E (SEQ ID NO: 37)) at a concentration of 30 nM for 5 min at 37° C. prior to induction with HGF (10 ng/ml) at 37° C. for 5 min.

[2] = tested on: Erk; test: HGF-induced activation of Erk in Panc1 cells (blot of activated Erk vs total Erk); conditions: peptide 30 nM for 5 min at 37° C. prior to HGF 10 ng/ml for 5 min
Method: as §1, §2

[3] = tested on: Panc 1 cells; test: Wound healing assay, Example 9 (FIG. 15); conditions: 500 nM, HGF 100 ng/ml, photos up to 48 hours after induction
Method: Cell migration is connected to angiogenesis where cells need to migrate in order to form new blood vessels. Angiogenesis is related to cancer metastasis.
Panc 1 cells were seeded in 6-well plates at a concentration of 3×10^5 cells per well and were allowed to adhere and form a confluent monolayer. After a starving period of 24 hours, a scratch was inserted using a sterile pipette tip. Medium was aspirated to remove scratched cells and replaced by new starving medium. containing reagents as indicated at a concentration of […] tested for their blocking quality.
The following reagents were added to the medium at a concentration of 500 nM to test their blocking efficiency: D3-epga1, D4-epga1, D2-epal1, D3-epal1, D4-epal1, D3-alga1, D3-alga2, D4-alga2, D5-alga2, D6-alga3, Epga-1, Epal-1, Alga-2 and Alga-3. After 30 min incubation at 37° C., growth factor HGF was added to induce migration (HGF 100 ng/ml). Photos of the cells were taken immediately after scratch (Day 1), 24 hours (Day 2) and 48 hours (D3) after induction using a Canon Power Shot G12 digital camera.

| Substance | activation of c-Met [1] | activation of Erk [2] | blocking of cell migration [3] |
| --- | --- | --- | --- |
| D1alga1: cyclic CD44v6 5mer containing a D-amino acid at position 1 ([dK]RWHE; lactam N-5) | blocks activation of c-Met | blocks activation of c-Met and Erk |  |
| D2alga1: cyclic CD44v6 5mer containing a D-amino acid at position 2 (K[dR]WHE; lactam N-5) | blocks activation of c-Met | blocks activation of c-Met and Erk |  |
| D3-epga1: cyclic 5 mer, ep/ga cyclisation, D-amino acid at position 3 per naming scheme (FIG. 13) (KR[dW]HE; lactam 1-5) |  |  | efficient in blocking cell migration |
| cy[αKGNRWHEγ] (KGNRW[dH]E; lactam N-7) [D6-alga3, cyclisation via N-terminal amino group of K and side chain carboxyl group of E, H is a D-amino acid] |  |  | Most efficient blocking of cell migration |
| cy[αKNRWHEγ] (lactam N-6) [Alga-2] |  |  | Most efficient blocking of cell migration |
| cy[εKRWHEα]γ] (K[dR]WHE; lactam 1-C; also: cyclised per cy[εKRWHEα]γ], linkage unclear) [D2-epal1] |  |  | Most efficient blocking of cell migration |
